Reference: patent publication US20240156717A1, “COMPOSITION FOR ENHANCING SKIN WHITENING EFFECT ACCORDING TO AUTOPHAGY ACTIVITY WITH NYPA FRUTICANS EXTRACT AS AN ACTIVE INGREDIENT” (KYUNGPOOK NATIONAL UNIVERSITY INDUSTRY - ACADEMIC …, priority 2022, published 2024)

What was measured:
Type in all cases: cell-based
[1] = system: Mouse melanocytes (Melan-a); assay: Melanin content with rapamycin (autophagy inducer) or bafilomycin (autophagy inhibitor); conditions: bafilomycin (autophagy inhibitor) treatment, FIG. 8
Method: (§1) Mouse melanocytes (Melan-a) were inoculated into a 24-well plate at 1×10^5 cells/mL and cultured overnight. Thereafter, the medium was replaced with a new medium containing 100 μM IBMX (melanogenesis promoter) and 10 μg/mL and 100 μg/mL of the Nypa fruticans extract of the present disclosure, and reacted for 72 hours. Thereafter, the cells were treated with rapamycin (autophagy inducer) or bafilomycin (autophagy inhibitor), and the melanin content was evaluated.

[2] = system: Mouse melanocytes (Melan-a); assay: Melanin content analysis in IBMX-treated melanocytes; conditions: 72 hours, FIG. 2
Method: as §1, with “hours, and the existing medium was washed.” for “hours.”, “washed twice” for “treated”, “PBS” for “rapamycin (autophagy inducer) or bafilomycin (autophagy inhibitor),”, “dissolved in 1 N NaOH.” for “the melanin content was evaluated.”
The melanin content was analyzed at 405 nm with a spectrophotometer, and arbutin was used as a positive control group.

[3] = system: melanogenesis-related genes (TYR, TYRP-1, TYRP-2, MITF, MC1R) in mouse melanocytes (Melan-a); assay: Melanogenesis inhibitory effect (RT-PCR), melanogenesis-related mRNA expression; conditions: IBMX treatment alone, FIG. 3
Method: as §1, with “hours, and the existing medium was washed.” for “hours.”, “washed twice” for “treated”, “PBS” for “rapamycin (autophagy inducer) or bafilomycin (autophagy inhibitor),”, “dissolved in 1 N NaOH.” for “the melanin content was evaluated.”
In melanogenesis, tyrosinase (TYR), tyrosinase-related protein-1 (TYRP-1) and tyrosinase-related protein-2 (TYRP-2) were key factors. […] In the experiment, phosphorylated CREB was evaluated as a transcription factor and melanogenesis-related genes such as tyrosinase, TYRP-1, TYRP-2, MITF, and MC1R in mouse melanocytes (Melan-a) to confirm a melanogenesis inhibitory effect.
Total RNA (2 μg) was extracted from the mouse melanocytes (Melan-a) using TRIzol (Invitrogen Co., Carlsbad, CA, USA). […] Quantification of bands was calculated using Image Lab™ software version 5.2.1 (Bio-Rad Laboratories, CA, USA).

[4] = system: melanogenesis-related proteins (TYR, TYRP-2, MITF) in mouse melanocytes (Melan-a); assay: Melanogenesis inhibitory effect (Western blot), melanogenesis-related protein expression; conditions: IBMX treatment alone, FIG. 4
Method: as §1, with “hours, and the existing medium was washed.” for “hours.”, “washed twice” for “treated”, “PBS” for “rapamycin (autophagy inducer) or bafilomycin (autophagy inhibitor),”, “dissolved in 1 N NaOH.” for “the melanin content was evaluated.”
Mouse melanocytes (Melan-a) were lysed with a RIPA buffer (ELPIS Biotech. Inc., Korea) containing protease inhibitor cocktail I (P8340; Sigma-Aldrich Korea) and phosphatase inhibitor cocktail II (P5726; Sigma-Aldrich Korea) and the extracted proteins were quantified using a Bradford protein method. Each protein was separated by 10% SDS-PAGE, and then transferred to a nitrocellulose (NC) membrane (0.45 μm; 1620115; Bio-Rad, Munich, Germany) and blocked with 5% skim milk or BSA in TBST for 1 hour. The membrane was cultured overnight with primary antibodies at 4° C. The membrane was washed four times at 15-minute intervals, and then reacted with anti-mouse or rabbit IgG-HRP as a secondary antibody. The proteins were detected using the ECL Solution System (ChemiDoc™ XRS+; Bio-Rad), and protein bands were quantified using Image Lab™ software (Bio-Rad Laboratories, CA, USA).

With `CO/C1=C\C(C)=C\[C@@H](C)[C@@H](O)[C@@H](C)C/C(C)=C/C=C/[C@H](OC)[C@@H]([C@@H](C)[C@@H](O)[C@H](C)[C@@]2(O)C[C@@H](O)[C@H](C)[C@@H](C(C)C)O2)OC1=O` [bafilomycin] the “effect on melanin content” value [1] was “did not affect”.
`CC(C)Cn1c(=O)n(C)c(=O)c2[nH]cnc21` [IBMX] was tested, and the “increase of melanin content compared to IBMX-untreated control group” value ([2]; 100 μM IBMX, absorbance 405 nm) was “about 1.5 times”, the “melanogenesis-related mRNA expression” value [3] was “increased” and the melanogenesis-related protein levels [4] was “increased”.
For `OC[C@H]1O[C@@H](Oc2ccc(O)cc2)[C@H](O)[C@@H](O)[C@@H]1O` [arbutin], the “melanin content reduction effect” value ([2]; IBMX-treated Melan-a, extract 100 μg/mL, arbutin positive control) was “melanin content reduction effect”.
